# Experimental data published in paper PMC6856131, “Pathways to defense metabolites and evading fruit bitterness in genus Solanum evolved through 2-oxoglutarate-dependent dioxygenases” (Nature Communications, 2019).
# Legend:
# ScGAME32-8380-1-1 = system: T1, ScGAME32-8380-1-1; assay: hydroxylation assay, UPLC-qTOF-MS; type: biochemical, Solanum chacoense; conditions: alpha-ketoglutarate 10 mM, ascorbate 10 mM, FeSO4 500 uM, pH 7.5, 30 °C, 3 h; standard contains isomer impurities
# T1 construct: pET28b, E. coli BL21 (DE3), Ni-NTA purified
# ScGAME32-8380-1-2 = system: T2, ScGAME32-8380-1-2; assay: hydroxylation assay, UPLC-qTOF-MS; type: biochemical, Solanum chacoense; conditions: alpha-ketoglutarate 10 mM, ascorbate 10 mM, FeSO4 500 uM, pH 7.5, 30 °C, 3 h; standard contains isomer impurities
# T2 construct: pET28b, E. coli BL21 (DE3), Ni-NTA purified
# GAME31 (tomato) = biological target: T3, GAME31 (tomato) (Solanum lycopersicum, UniProt A0A6F8PJG0); type: biochemical; conditions: alpha-ketoglutarate 10 mM, ascorbate 10 mM, FeSO4 500 uM, pH 7.5, 30 °C, 3 h
# T3 construct: gene 23DOX
# T3 sequence (A0A6F8PJG0 entry or part of it): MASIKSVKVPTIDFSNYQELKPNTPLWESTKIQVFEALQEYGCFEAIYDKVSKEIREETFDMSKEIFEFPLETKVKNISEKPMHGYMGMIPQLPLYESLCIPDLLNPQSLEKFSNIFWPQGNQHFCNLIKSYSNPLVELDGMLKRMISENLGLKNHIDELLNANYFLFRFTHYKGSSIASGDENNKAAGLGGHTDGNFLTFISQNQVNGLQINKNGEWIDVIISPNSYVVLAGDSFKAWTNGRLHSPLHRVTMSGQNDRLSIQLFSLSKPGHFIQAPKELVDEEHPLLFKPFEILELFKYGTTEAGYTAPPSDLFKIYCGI
# T1 sequence (DOC6856131_6 entry or part of it): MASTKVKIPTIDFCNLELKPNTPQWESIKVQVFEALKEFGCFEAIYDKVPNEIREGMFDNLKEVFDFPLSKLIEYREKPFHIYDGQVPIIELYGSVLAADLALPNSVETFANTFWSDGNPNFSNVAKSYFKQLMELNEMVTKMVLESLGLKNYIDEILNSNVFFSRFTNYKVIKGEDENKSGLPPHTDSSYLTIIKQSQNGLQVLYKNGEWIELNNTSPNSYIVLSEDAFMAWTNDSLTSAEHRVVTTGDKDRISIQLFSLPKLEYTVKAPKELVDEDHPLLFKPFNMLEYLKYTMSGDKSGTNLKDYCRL
# T2 sequence (DOC6856131_7 entry or part of it): as the sequence (DOC6856131_6 entry or part of it) above, with M288L, L292N, S301Y counted along it
structure (smiles),measurement,setting,value
C[C@H]1CC[C@@H]2[C@@H](C)[C@H]3[C@H](C[C@H]4[C@@H]5CC=C6C[C@@H](O[C@@H]7O[C@H](CO)[C@@H](O[C@@H]8O[C@@H](C)[C@H](O)[C@@H](O)[C@H]8O)[C@H](O)[C@H]7O[C@@H]7O[C@@H](C)[C@H](O)[C@@H](O)[C@H]7O)CC[C@]6(C)[C@H]5CC[C@]34C)N2C1 [α-chaconine],"hydroxylation assay, UPLC-qTOF-MS",ScGAME32-8380-1-1,Incubation of ScGAME32-8380-1-1 or ScGAME32-8380-1-2 with α-chaconine and α-solanine resulted in the formation
same,"hydroxylation assay, UPLC-qTOF-MS",ScGAME32-8380-1-2,Incubation of ScGAME32-8380-1-1 or ScGAME32-8380-1-2 with α-chaconine and α-solanine resulted in the formation
C[C@@H]1CC[C@@]2(NC1)O[C@H]1C[C@H]3[C@@H]4CC=C5C[C@@H](O[C@@H]6O[C@H](CO)[C@@H](O[C@@H]7O[C@@H](C)[C@H](O)[C@@H](O)[C@H]7O)[C@H](O)[C@H]6O[C@@H]6O[C@@H](C)[C@H](O)[C@@H](O)[C@H]6O)CC[C@]5(C)[C@H]4CC[C@]3(C)[C@H]1[C@@H]2C [α-solamargine],"hydroxylation assay, UPLC-qTOF-MS",GAME31 (tomato),"hydroxy-solasodine, and hydroxy-solamargine from dehydrotomatine, solasodine, and α-solamargine, respectively"
